Measurements reported in a melting point compilation (Tetko et al.; mined from patent text by program, amines drawn as free bases though some values may be those of a salt).

SMILES	melting point [°C]
Cc1onc(-c2cccc(Cl)c2)c1C(=O)O	171 to 173
CCCCCCCCCCCC1=NCCO1	71 to 74
Cc1ccc(-c2csc(-c3ccc(C(=O)O)cc3)n2)cc1	289 to 290
CCC(=O)Oc1cccc(NC(=O)CBr)c1	85 to 88
COc1cc(COc2ccc3nc(NC(=O)Oc4ccccc4)cn3n2)cc(OC)c1OC	210 to 213
O=C(c1ccccc1)N1CCc2cc(Cl)ccc21	135 to 136
Cc1ccccc1NC(=O)Nc1ccc(CC(=O)O)cc1	205 to 206
CS(=O)(=O)c1ccc(N2CCC(=O)CC2)cc1	183 to 185
CCS(=O)(=O)C(F)(F)C(O)(Cn1cncn1)c1ccc(F)cc1 (stereo unspecified)	131 to 132
O=S1(=O)NCN(CCF)c2cc(Cl)c(Br)cc21	159 to 162
C=C1CCC2(c3c[nH]cn3)Cc3ccccc3C12 (stereo unspecified)	167 to 174
COc1cc(C#N)ccc1C	51 to 52.5
Fc1ccc(-c2[nH]cc(CCCN3CCCCC3)c2-c2ccncc2)cc1	195 to 197
Nc1ncccc1-c1nc2ccc(-c3cccnc3)nc2n1-c1ccc(NC(=O)c2ccccc2)cc1	222 to 224
CCOC(=O)c1sc(-c2ccccc2)nc1O	114 to 116
CC(C)Nc1nc2c(Cl)cccc2n1[C@H]1O[C@@H](CO)[C@H](O)[C@@H]1O	225 to 227
CCCCNC(=O)N(N)CCCC	34 to 36
CC[C@H](C)[C@H](NC(=O)OC(C)(C)C)C(=O)N[C@H](C(=O)N[C@@H](Cc1ccc2ccccc2c1)[C@@H](O)[C@@H](O)CC(C)C)[C@@H](C)CC	168 to 169
O=C(CO)c1ccc(C2CCCCC2)cc1	104 to 106
C=CCCC(O)=C(C#N)C(=O)Nc1ccc(Cl)c(C)c1	134
CC(C)c1cc(-c2c3ccccc3c(Br)c3sc4ccccc4c23)cc(C(C)C)c1O[C@H](C)C(=O)O	214 to 215
CC(NC(=O)C(O)c1cc(F)cc(F)c1)C(=O)Nc1ccc2c(c1)NC(=O)Cc1cccn1-2 (stereo unspecified)	239 to 240
CN(C(CCn1c(=O)cc(Cl)n(C)c1=O)C(=O)O)S(=O)(=O)c1ccc(Oc2ccccc2)cc1 (stereo unspecified)	115 to 117
Cc1ccc2cccc(OCc3c(Cl)ccc([N+](=O)[O-])c3C#N)c2n1	212 to 215

SMILES	melting point [°C]
COc1ccc(C(=O)c2sccc2OC2OC(COC(C)=O)C(OC(C)=O)C(OC(C)=O)C2OC(C)=O)cc1 (stereo unspecified)	149 to 151
COc1ccc(-c2ccc(C)n2CC[C@H]2C[C@H](O)CC(=O)O2)cc1 (relative stereo)	95
Cc1cc(C)c2c(n1)N(CCN(C)C)C(=O)N(C)C2	105 to 107
CCc1nc(C(=O)c2c(C)cc(C)cc2C)c(C=O)n1C(CC)CC	119 to 120
c1csc(-c2nc3ccc(N4CCC(N5CCCC5)CC4)nn3c2-c2ccncc2)c1	85
Cc1ccc(S(=O)(=O)Nc2ccc(N)c(C3CCCC3)c2)cc1	128
CC(C)CCS(=O)(=O)NC(=O)/C=C/c1cc(OCC2CC2)nn1Cc1ccc(C(F)(F)F)cc1Cl	156 to 158
O=C(NNc1ccc(C(F)(F)F)cc1)c1ccccc1F	163 to 165
O=C(NCC(F)(F)F)c1cccc(CN2CCN(c3ccc(NC(=O)c4ccccc4-c4ccc(C(F)(F)F)cc4)cc3)CC2)c1	205 to 207
O=Cc1cn(-c2ccc(C(F)(F)F)cn2)nc1C1CCCCC1	103 to 104
O=C(O)c1ncccc1Cl	126 to 128
Cn1ncc(N2CCCCC2)c(-c2ccccc2C=O)c1=O	134 to 135
CC(C)(C)c1cc(C(C(=O)O)c2cc(C(C)(C)C)c(O)c(C(C)(C)C)c2)cc(C(C)(C)C)c1O	211
CC(C)(C)OC(=O)N1CCC(Oc2cncc(Cl)n2)CC1	86 to 87
C=Cc1nc2cc(Br)ccc2o1	55 to 56
CCc1cccc(NC(=O)C=C(C)C)c1	90
NS(=O)(=O)C1=CC2=C(OCCO)CCS(=O)(=O)C2S1 (stereo unspecified)	159 to 164
CC(=O)c1cc(N2CCCC2)ccc1NC(=O)c1cccc2c1OCO2	139 to 141
Cc1c(NC(=O)c2ccc(-c3cc4ccccc4o3)cc2F)ccc2cc(CN3CCCC3)cnc12	202 to 203
CC(C)(C)OC(=O)N1CCc2c(n(CCOc3ccccc3)c3c(Cl)cc(Cl)cc23)CC1	154 to 155
COc1ccc2c(=O)c(C=O)coc2c1	188 to 190
Cc1cccc(NC(=O)NC2N=C(c3ccccc3F)c3ccccc3N(Cc3csc4ccccc34)C2=O)c1 (racemic)	214 to 216
CC(=O)CCc1ccc2c(c1)Cc1ccccc1-2	99 to 101
O=c1[nH]c2ccccc2n1CCN1CCN(c2cc(O)cc(C(F)(F)F)c2)CC1	170

SMILES	melting point [°C]
Cc1cc(-c2ccccc2)c(=O)n2c1-c1sccc1CC2	80.5 to 81
COC(=O)c1ccc2[nH]c(=O)n(CCCCN3CC=C(c4ccccc4)CC3)c(=O)c2c1	138
CC(=O)N(C)c1ccc(CO)cc1	83.5 to 85.5
O=Cc1c2ccccc2c(C=O)c2cc3ccccc3cc12	215 to 217
CN(C)CCn1c(=O)c2cc([N+](=O)[O-])ccc2c2cnc3cc4c(cc3c21)OCO4	204 to 205
O=C1Nc2cccc(-c3cccc(NC(=O)c4ccc(O)cc4)c3)c2/C1=C/c1ccc[nH]1	236 to 238
O[C@@H]1CN(Cc2ccccc2)C[C@H]1Oc1ccc(OCc2ccccc2)cc1 (relative stereo)	98 to 100
FC(F)(F)c1cccc(N2CCN(CC[C@H]3CC[C@H](Nc4ncccn4)CC3)CC2)c1	167
CCOC(=O)CCCN(C(=O)c1cccc(C(F)(F)F)c1)c1ccccc1-c1ccccc1	65 to 67
COC(=O)N1CC[C@@H]2[C@H]1CCC[C@@]2(O)C#Cc1cccc(C)c1	110 to 112
COc1ccccc1CNc1ccc2cc(Nc3nccc(C)n3)ccc2n1	125
O=C1C(Cl)=C(CC2CCCC(C(F)(F)F)C2)C(=O)c2ccccc21 (stereo unspecified)	104
COC(=O)c1ccc(-c2nc(-c3ccc(C(C)(C)C)cc3)no2)c(N)c1	195 to 196
Cc1oc(C=Cc2cccc(Cl)c2)nc1C(=O)O	213 to 214
CC1(C)COC(=O)N1c1nc(-c2ccc([N+](=O)[O-])cc2)cs1	176 to 179
CCOC(=O)N1C=CC(c2ccc(F)cc2)C(C(=O)OC)=C1 (stereo unspecified)	83 to 85
COc1nc(C)cnc1NS(=O)(=O)c1cccnc1-c1ccc(COC(C)C)cc1	123 to 124
Cc1cc(C)c2c(c1)OCC2=O	55 to 60
CCn1cc(C2(c3cccc(-c4cccnc4F)c3)N=C(N)N3CCCN=C32)cn1 (stereo unspecified)	91 to 115
CNCc1ccc2nc(NC(=O)c3ccc(C(C)(C)C)cc3)cn2c1	204 to 205
CCCNC(=O)C(Cc1ccc2c(c1)c(Cc1ccc(C(=O)OC)cc1OC)cn2CCC)C(C)C (stereo unspecified)	123 to 125
COc1cc2cc3c(ccc4cc(Cl)ccc43)nc2cc1OC	241 to 243
O=C1Cc2ccccc2N1c1c(Cl)cc(OCc2ccc3ccccc3n2)cc1Cl	158
